According to patent US20060069132A1, “Azolecarboxamide herbicides” (priority 2004, published 2006):

What was measured:
woolly cupgrass = experiment: Test C pre-/postemergence herbicide test; assay type: in vivo, Eriochloa villosa
From the text: Seeds of plant species selected from bermudagrass (Cynodon dactylon (L.) Pers.), Surinam grass (Urochloa decumbens (Staph) R. D. Webster, previously named Brachiaria decumbens Stapf), cocklebur (Xanthium strumarium L.), corn (Zea mays L.), large crabgrass (Digitaria sanguinalis (L.) Scop.), woolly cupgrass (Eriochloa villosa (Thunb.) Kunth), giant foxtail (Setaria faberi Herrm.), goosegrass (Eleusine indica (L.) Gaertn.), johnsongrass (Sorghum halepense (L.) Pers.), kochia (Kochia scoparia (L.) Schrad.), lambsquarters (Chenopodium album L.), morningglory (Ipomoea coccinea L.), eastern black nightshade (Solanum ptycanthum Dunal), yellow nutsedge (Cyperus esculentus L.), pigweed (Amaranthus retroflexus L.), common ragweed (Ambrosia elatior L.), soybean (Glycine max (L.) Merr.), common (oilseed) sunflower (Helianthus annuus L.) and velvetleaf (Abutilon theophrasti Medik.) were planted and treated preemergence with test chemicals formulated in a non-phytotoxic solvent mixture which included a surfactant.
At the same time, plants selected from these crop and weed species and also winter barley (Hordeum vulgare L.), blackgrass (Alopecurus myosuroides Huds.), canarygrass (Phalaris minor Retz.), chickweed (Stellaria media (L.) Vill.), downy bromegrass (Bromus tectorum L.), green foxtail (Setaria viridis (L.) Beauv.), Italian ryegrass (Lolium multiflorum Lam.), wheat (Triticum aestivum L.), wild oat (Avenafatua L.) and windgrass (Apera spica-venti (L.) Beauv.) were treated with postemergence applications of some of the test chemicals formulated in the same manner. Plants ranged in height from 2 to 18 cm (1- to 4-leaf stage) for postemergence treatments. Plant species in the flooded paddy test consisted of rice (Oryza sativa), smallflower umbrella sedge (Cyperus difformis L.), ducksalad (Heteranthera limosa (Sw.) Willd.) and barnyardgrass (Echinochloa crus-galli (L.) Beauv.) grown to the 2-leaf stage for testing. Treated plants and controls were maintained in a greenhouse for 12 to 14 days, after which time all species were compared to controls and visually evaluated. Plant response ratings, summarized in Table C, are based on a scale of 0 to 100 where 0 is no effect and 100 is complete control. A dash (-) response means no test result.

redroot pigweed = experiment: Test A pre-/postemergence herbicide test; assay type: in vivo, Amaranthus retroflexus
Procedure, shortened: (§1)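 Visual injury rating on a 0–100 scale (0 no effect, 100 complete control) versus untreated controls, about ten days after treatment in greenhouse. Pre: directed soil spray onto seeded sandy loam. Post: spray to runoff on plants 2–10 cm tall at one- to two-leaf stage.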

velvetleaf = experiment: Test A pre-/postemergence herbicide test; assay type: in vivo, Abutilon theophrasti
Procedure, shortened: as §1

[1] = 62 g ai/ha, preemergence, scale 0 to 100
[2] = 125 g ai/ha, scale 0 (no effect) to 100 (complete control), visual, 12 to 14 days, preemergence
[3] = 250 g ai/ha, scale 0-100, preemergence
[4] = Postemergence, 500 g ai/ha, 0 to 100 scale, 0 no effect, 100 complete control
[5] = Postemergence, 2000 g ai/ha, 0 to 100 scale, 0 no effect, 100 complete control
[6] = Preemergence, 500 g ai/ha, visual rating, 0 to 100 scale (0 no effect, 100 complete control)
[7] = Preemergence, 2000 g ai/ha, 0 to 100 scale, 0 no effect, 100 complete control
[8] = Postemergence, 125 g ai/ha, 0 to 100 scale, 0 no effect, 100 complete control
[9] = preemergence, 125 g ai/ha, visual injury, 0 to 100 scale (0 no effect, 100 complete control)
[10] = Preemergence, 2000 g ai/ha, visual rating, 0 to 100 scale (0 no effect, 100 complete control)
[11] = preemergence, 500 g ai/ha, visual injury, 0 to 100 scale (0 no effect, 100 complete control)
[12] = 500 g ai/ha, scale 0 to 100 (0 no effect, 100 complete control), visual, 12 to 14 days, preemergence

Row | Structure (SMILES) | Plant response rating, Pigweed (redroot pigweed; [5]) | Plant response rating, Velvetleaf (velvetleaf; [5]) | Pigweed plant response rating (redroot pigweed; [4]) | Pigweed plant response rating (redroot pigweed; [10]) | Pigweed plant response rating (redroot pigweed; [11]) | Velvetleaf plant response rating (velvetleaf; [4]) | Velvetleaf plant response rating (velvetleaf; [10]) | Velvetleaf plant response rating (velvetleaf; [11]) | also measured
1 | CCN1N=C(C(C)(C)C)CC1C(=O)Nc1cc(C(=O)N2CC=CC2)ccc1F (racemic) [Compound 310] | – | – | – | – | – | – | – | – | Plant response rating, Cupgrass, Woolly (woolly cupgrass; [1]): 5; Plant response rating, Cupgrass, Woolly (woolly cupgrass; [2]): 10; Plant response rating, Cupgrass, Woolly (woolly cupgrass; [3]): 70
2 | CCn1nc(C(C)(C)C)cc1C(=O)Nc1cccc(C(=O)NCCF)c1 [Compound 45] | 100 | 65 | – | – | – | – | – | – | Plant response rating, Pigweed (redroot pigweed; [4]): 100; Pigweed plant response rating (redroot pigweed; [6]): 95; Pigweed plant response rating (redroot pigweed; [7]): 100; Velvetleaf plant response rating (velvetleaf; [6]): 25; Velvetleaf plant response rating (velvetleaf; [7]): 65
3 | CCn1nc(C(C)(C)C)cc1C(=O)Nc1cccc(C(=O)NC(C)C)c1 [Compound 51] | – | – | – | – | – | – | – | – | Pigweed plant response rating (redroot pigweed; [8]): 50; Plant response rating, Pigweed (redroot pigweed; [4]): 85; Pigweed plant response rating (redroot pigweed; [6]): 100; Pigweed plant response rating (redroot pigweed; [9]): 100; Velvetleaf plant response rating (velvetleaf; [8]): 40; Velvetleaf plant response rating (velvetleaf; [6]): 100; Velvetleaf plant response rating (velvetleaf; [9]): 20
4 | C=CCn1nc(C(C)(C)C)cc1C(=O)Nc1cccc(C(=O)NCC)c1 [Compound 56] | – | – | – | – | – | – | – | – | Plant response rating (0 = no effect, 100 = complete control), Cupgrass, Woolly (woolly cupgrass; 62 g ai/ha, preemergence): 0; Plant response rating, Cupgrass, Woolly (woolly cupgrass; [2]): 0; Plant response rating, Cupgrass, Woolly (woolly cupgrass; 250 g ai/ha, scale 0 to 100 (0 no effect, 100 complete control), visual, 12 to 14 days, preemergence): 35; Cupgrass, Woolly plant response rating (woolly cupgrass; Preemergence, 500 g ai/ha, scale 0 to 100, 0 no effect, 100 complete control): 40
5 | CCn1nc(C(C)(C)C)cc1C(=O)Nc1cccc(C(C)=O)c1 [Compound 122] | 100 | 70 | 60 | 90 | 85 | 45 | 70 | 40 | –
6 | CCOc1cccc(NC(=O)c2cc(C(C)(C)C)nn2CC)c1 [Compound 136] | 85 | 75 | 65 | 80 | 70 | 55 | 30 | 25 | –
7 | CCn1nc(C(C)(C)C)cc1C(=O)Nc1cccc(OCCCF)c1 [Compound 138] | 100 | 60 | 60 | 95 | 80 | 20 | 50 | 20 | –
8 | CCc1nc(C(C)(C)C)sc1C(=O)Nc1cccc(C(=O)NCCF)c1 [Compound 209] | 50 | 20 | 40 | 100 | 75 | 10 | 75 | 10 | –
9 | CCc1nc(C(C)(C)C)sc1C(=O)Nc1cccc(C(=O)NC(C)(C)C)n1 [Compound 216] | 55 | 35 | 30 | 70 | 0 | 25 | 30 | 10 | –
10 | CCNC(=O)c1cccc(NC(=O)c2nn(C(C)(C)C)cc2Br)c1 [Compound 221, 4-bromo-1-(1,1-dimethylethyl)-N-[3-[(ethylamino)carbonyl]phenyl]-1H-pyrazole-3-carboxamide] | – | – | – | – | – | – | – | – | pest or weed control at 62 g/ha (woolly cupgrass; Eriochloa villosa, pre-emergence, 312 h, 62 g ai/ha, preemergence, scale 0 to 100, read-out: Plant response rating, Cupgrass, Woolly): 0%; pest or weed control at 125 g/ha (woolly cupgrass; Eriochloa villosa, pre-emergence, 312 h, 125 g ai/ha, scale 0 (no effect) to 100 (complete control), visual, 12 to 14 days, read-out: Plant response rating, Cupgrass, Woolly): 0%; pest or weed control at 250 g/ha (woolly cupgrass; Eriochloa villosa, pre-emergence, 312 h, 250 g ai/ha, scale 0-100, read-out: Plant response rating, Cupgrass, Woolly): 0%; pest or weed control at 500 g/ha (woolly cupgrass; Eriochloa villosa, pre-emergence, 312 h, 500 g ai/ha, scale 0 to 100 (0 no effect, 100 complete control), visual, 12 to 14 days, read-out: Plant response rating, Cupgrass, Woolly): 10%
11 | CCn1nc(C(C)(C)C)cc1C(=O)Nc1cc(C(=O)N(C)OC)ccc1F [Compound 244] | – | – | – | – | – | – | – | – | Plant response rating, Cupgrass, Woolly (woolly cupgrass; [1]): 65; Plant response rating, Cupgrass, Woolly (woolly cupgrass; [2]): 65; Plant response rating, Cupgrass, Woolly (woolly cupgrass; [3]): 85; Plant response rating, Cupgrass, Woolly (woolly cupgrass; [12]): 95
12 | CCNC(=O)c1ccc(F)c(NC(=O)c2cc(C(C)(C)C)nn2CC)n1 [Compound 278] | 70 | 25 | 60 | 95 | 85 | 20 | 35 | 20 | –
13 | CCn1nc(C(C)(C)C)cc1C(=O)Nc1nc(C(=O)N2CC=CC2)ccc1F [Compound 281] | 70 | 40 | 70 | 95 | 90 | 35 | 35 | 10 | –
14 | C#CCNC(=O)c1cc(NC(=O)c2cc(C(C)(C)C)nn2CC)ccn1 [Compound 283] | 100 | 35 | 80 | 90 | 60 | 15 | 15 | 0 | –
15 | CCn1nc(C(C)(C)C)cc1C(=O)Nc1cncc(C(=O)N2CC=CC2)n1 [Compound 290] | 60 | 30 | 30 | 95 | 10 | 20 | 30 | 15 | –
16 | CCOC(=O)c1cccc(NC(=O)c2cc(C3(C)CC3)nn2CC)c1 [Compound 295] | – | – | – | – | – | – | – | – | Plant response rating, Cupgrass, Woolly (woolly cupgrass; Postemergence, 250 g ai/ha, scale 0 to 100, 0 no effect, 100 complete control): 15; Plant response rating, Cupgrass, Woolly (woolly cupgrass; postemergence, 125 g ai/ha, scale 0 to 100): 15; Plant response rating, Cupgrass, Woolly (woolly cupgrass; postemergence, 62 g ai/ha, scale 0 to 100): 10
17 | CCn1nc(C(C)(C)C)cc1C(=O)Nc1ccc(OC)c(OC)c1 [Compound 298] | – | – | – | – | – | – | – | – | Plant response rating, Cupgrass, Woolly (woolly cupgrass; [1]): 5; Plant response rating, Cupgrass, Woolly (woolly cupgrass; [2]): 10; Plant response rating, Cupgrass, Woolly (woolly cupgrass; [3]): 30; Plant response rating, Cupgrass, Woolly (woolly cupgrass; [12]): 60
18 | CCn1nc(C2(C)CC2)cc1C(=O)Nc1cc(C(=O)N2CC=CC2)ccc1F [Compound 301] | – | – | – | – | – | – | – | – | Plant response rating, Cupgrass, Woolly (woolly cupgrass; [1]): 10; Plant response rating, Cupgrass, Woolly (woolly cupgrass; [2]): 50; Plant response rating, Cupgrass, Woolly (woolly cupgrass; [3]): 70; Plant response rating, Cupgrass, Woolly (woolly cupgrass; [12]): 90
19 | C#CCNC(=O)c1cccc(NC(=O)c2sc(C(C)(C)C)nc2CC)c1 [Compound 319] | 40 | 30 | 40 | 100 | 100 | 20 | 45 | 35 | –
20 | CCN(C(C)=O)C(=O)c1ccc(F)c(NC(=O)c2cc(C(C)(C)C)nn2CC)c1 [Compound 413] | 85 | 55 | 60 | 60 | 45 | 40 | 35 | 35 | –
